Counter-ions that a name gives are not always drawn.

For one assay, the system named is Acinetobacter baumannii ATCC17978. Put plainly: Antimicrobial susceptibility testing: 90% growth inhibitory concentration (IC90) determination, Iso-Sensitest broth. Format: cell-based. Conditions: 90% growth inhibitory concentration, Acinetobacter baumannii ATCC17978, Iso-Sensitest broth, OD 600 nm over 16 h; read-out: ATCC17978 IC90. Here is the method: Antimicrobial Susceptibility Testing:
90% Growth Inhibitory Concentration (IC90) Determination
The in vitro antimicrobial activity of the compounds was determined according to the following procedure:
The assay used a 10-points Iso-Sensitest broth medium to measure quantitatively the in vitro activity of the compounds against Acinetobacter baumannii ATCC17978 and Acinetobacter baumannii ATCC17961.
Microtiter plates were incubated at 35±2° C.
Bacterial cell growth was determined with the measurement of optical density at λ=600 nm each 20 minutes over a time course of 16 h. Growth inhibition was calculated during the logarithmic growth of the bacterial cells with determination of the concentration inhibiting 50% (IC50) and 90% (IC90) of the growth.
For the compound `Cc1cc(Nc2nccn3c(-c4cc(F)c(OCC#N)cc4Cl)cnc23)ccc1C(=O)N1CCC(C(=O)N2CCNC(CO)C2)CC1` (stereo not shown) [Example 32, 2-[5-chloro-2-fluoro-4-[8-[4-[4-[3-(hydroxymethyl)piperazine-1-carbonyl]piperidine-1-carbonyl]-3-methyl-anilino]imidazo[1,2-a]pyrazin-3-yl]phenoxy]acetonitrile;2,2,2-trifluoroacetic acid], the IC90 was 0.21 µM. For the compound `Cc1cc(Nc2nccn3c(-c4ccc(OC(F)F)cc4)cnc23)ccc1C(=O)N1CCC(C(=O)N2C[C@H](CO)[C@@H](O)[C@H](O)C2)CC1` [Example 33, (1-(4-((3-(4-(difluoromethoxy)phenyl)imidazo[1,2-a]pyrazin-8-yl)amino)-2-methylbenzoyl)piperidin-4-yl)((3R,4R,5R)-3,4-dihydroxy-5-(hydroxymethyl)piperidin-1-yl)methanone], the IC90 was found to be 0.23 µM. On to `COc1ccc(-c2cnc3c(Nc4ccc(C(=O)N5CCN(CCN(C)C)CC5)c(C)c4)nccn23)cc1F` [Example 35, (4-(2-(dimethylamino)ethyl)piperazin-1-yl)(4-((3-(3-fluoro-4-methoxyphenyl)imidazo[1,2-a]pyrazin-8-yl)amino)-2-methylphenyl)methanone], for which the IC90 turned out to be 0.25 µM.

Turning to `Cc1cc(Nc2nccn3c(-c4ccc(OC(F)F)cc4)cnc23)ccc1C(=O)N1CCC(N2CCN(C)CC2)CC1` [Example 36, (4-((3-(4-(difluoromethoxy)phenyl)imidazo[1,2-a]pyrazin-8-yl)amino)-2-methylphenyl)(4-(4-methylpiperazin-1-yl)piperidin-1-yl)methanone], the IC90 came out at 0.25 µM. As for `Cc1cc(Nc2nccn3c(-c4ccc(OC(F)F)cc4)cnc23)ccc1C(=O)N1CCN(C(=O)CN(C)C)CC1` [Example 38, 1-(4-(4-((3-(4-(difluoromethoxy)phenyl)imidazo[1,2-a]pyrazin-8-yl)amino)-2-methylbenzoyl)piperazin-1-yl)-2-(dimethylamino)ethanone], the IC90 was found to be 0.22 µM. On to `COc1ccc(-c2cnc3c(Nc4ccc(C(=O)N5CCC(C(=O)N6CCOC(CN)C6)CC5)c(C)c4)nccn23)cc1F` (stereo not shown) [Example 39, (4-(2-(aminomethyl)morpholine-4-carbonyl)piperidin-1-yl)(4-((3-(3-fluoro-4-methoxyphenyl)imidazo[1,2-a]pyrazin-8-yl)amino)-2-methylphenyl)methanone hydrochloride], for which the IC90 came to 0.26 µM.

In the case of `CNCCNC(=O)C1CCN(C(=O)c2ccc(Nc3nccn4c(-c5ccc(OC)c(F)c5)cnc34)cc2C)CC1` [Example 40, 1-(4-((3-(3-fluoro-4-methoxyphenyl)imidazo[1,2-a]pyrazin-8-yl)amino)-2-methylbenzoyl)-N-(2-(methylamino)ethyl)piperidine-4-carboxamide hydrochloride], the IC90 came out at 0.28 µM. For the compound `COc1ccc(-c2cnc3c(Nc4ccc(C(=O)N5CCN(c6nccn6C)CC5)c(C)c4)nccn23)cc1F` [Example 41, (4-((3-(3-fluoro-4-methoxyphenyl)imidazo[1,2-a]pyrazin-8-yl)amino)-2-methylphenyl)(4-(1-methyl-1H-imidazol-2-yl)piperazin-1-yl)methanone], the IC90 worked out at 0.11 µM.

For `COc1ccc(-c2cnc3c(Nc4ccc(C(=O)N5CCNCC5CO)c(C)c4)nccn23)cc1F` (stereo not shown) [Example 42, (4-((3-(3-fluoro-4-methoxyphenyl)imidazo[1,2-a]pyrazin-8-yl)amino)-2-methylphenyl)(2-(hydroxymethyl)piperazin-1-yl)methanone], the IC90 is 0.27 µM.

`Cc1cc(Nc2nccn3c(-c4ccc(OC(F)F)cc4)cnc23)ccc1C(=O)N1CCC(C(=O)N2CC3(C2)CN(C2CC2)C3)CC1` [Example 44, (4-(6-cyclopropyl-2,6-diazaspiro[3.3]heptane-2-carbonyl)piperidin-1-yl)(4-((3-(4-(difluoromethoxy)phenyl)imidazo[1,2-a]pyrazin-8-yl)amino)-2-methylphenyl)methanone]: the IC90 came out at 0.28 µM. Consider `COc1ccc(-c2cnc3c(Nc4ccc(C(=O)N5CCC(C(=O)NCCCN(C)C)CC5)c(C)c4)nccn23)cc1F` [Example 46, N-[3-(dimethylamino)propyl]-1-[4-[[3-(3-fluoro-4-methoxyphenyl)imidazo[1,2-a]pyrazin-8-yl]amino]-2-methylbenzoyl]piperidine-4-carboxamide], for which the IC90 worked out at 0.2 µM. With `COc1ccc(-c2cnc3c(Nc4ccc(C(=O)N5CCC(C(=O)NCCN(C)C)CC5)c(C)c4)nccn23)cc1F` [Example 47, N-[2-(dimethylamino)ethyl]-1-[4-[[3-(3-fluoro-4-methoxyphenyl)imidazo[1,2-a]pyrazin-8-yl]amino]-2-methylbenzoyl]piperidine-4-carboxamide], the IC90 is 0.14 µM. Regarding `COc1ccc(-c2cnc3c(Nc4ccc(C(=O)N5CCC(C(=O)N6CCNC(C(=O)O)C6)CC5)c(C)c4)nccn23)cc1F` (stereo not shown) [Example 48, 4-[1-[4-[[3-(3-fluoro-4-methoxyphenyl)imidazo[1,2-a]pyrazin-8-yl]amino]-2-methylbenzoyl]piperidine-4-carbonyl]piperazine-2-carboxylic acid;hydrochloride], the IC90 was determined as 0.93 µM.

Staying with this assay, now noted: Acinetobacter baumannii, ATCC17978, 16 h, read-out: ATCC17978 IC90, 90% growth inhibitory concentration, Acinetobacter baumannii ATCC17978, Iso-Sensitest broth, OD 600 nm over 16 h.
`COc1ccc(-c2cnc3c(Nc4ccc(C(=O)N5CCC(CN)CC5)c(C)c4)nccn23)cc1F` [Example 34, (4-(aminomethyl)piperidin-1-yl)(4-((3-(3-fluoro-4-methoxyphenyl)imidazo[1,2-a]pyrazin-8-yl)amino)-2-methylphenyl)methanone hydrochloride]: the IC90 was found to be 0.19 µM.

Take `Cc1cc(Nc2nccn3c(-c4ccc(OC(F)F)cc4)cnc23)ccc1C(=O)N1CCC(C(=O)N2CCOC(CN)C2)CC1` (stereo not shown) [Example 43, (4-(2-(aminomethyl)morpholine-4-carbonyl)piperidin-1-yl)(4-((3-(4-(difluoromethoxy)phenyl)imidazo[1,2-a]pyrazin-8-yl)amino)-2-methylphenyl)methanone hydrochloride]: the IC90 worked out at 0.22 µM. For `Cc1cc(Nc2nccn3c(-c4ccc(OC(F)F)cc4)cnc23)ccc1C(=O)N1CCC(N2CCNCC2)CC1` [Example 45, (4-((3-(4-(difluoromethoxy)phenyl)imidazo[1,2-a]pyrazin-8-yl)amino)-2-methylphenyl)(4-(piperazin-1-yl)piperidin-1-yl)methanone hydrochloride], the IC90 was found to be 0.19 µM. Regarding `CNCCCNC(=O)C1CCN(C(=O)c2ccc(Nc3nccn4c(-c5ccc(OC)c(F)c5)cnc34)cc2C)CC1` [Example 49, 1-(4-((3-(3-fluoro-4-methoxyphenyl)imidazo[1,2-a]pyrazin-8-yl)amino)-2-methylbenzoyl)-N-(3-(methylamino)propyl)piperidine-4-carboxamide hydrochloride], the IC90 amounted to 0.27 µM.

With `CN[C@@H]1CCN(C(=O)C2CCN(C(=O)c3ccc(Nc4nccn5c(-c6ccc(OC)c(F)c6)cnc45)cc3C)CC2)C1` [Example 50, (R)-(1-(4-((3-(3-fluoro-4-methoxyphenyl)imidazo[1,2-a]pyrazin-8-yl)amino)-2-methylbenzoyl)piperidin-4-yl)(3-(methylamino)pyrrolidin-1-yl)methanone hydrochloride], the IC90 came to 0.29 µM.

Staying with this assay, now noted: read-out: ATCC17978 IC90; 90% growth inhibitory concentration, Acinetobacter baumannii ATCC17978, Iso-Sensitest broth, OD 600 nm over 16 h; hydrochloride.
With `Cc1cc(Nc2nccn3c(-c4ccc(OC(F)F)cc4)cnc23)ccc1C(=O)N1CCN(C(=O)CN)CC1` [Example 37, 2-amino-1-(4-(4-((3-(4-(difluoromethoxy)phenyl)imidazo[1,2-a]pyrazin-8-yl)amino)-2-methylbenzoyl)piperazin-1-yl)ethanone hydrochloride], the IC90 amounted to 0.18 µM.

The values are drawn from patent publication US20230011869A1 (Hoffmann-La Roche Inc., priority 2018, published 2023).
